Where two headings read alike, the source gives them in different places.
Assays:
PDGFRα D842V = PDGFRα D842V (Homo sapiens, UniProt P16234, D842V); experiment: PDGFRα D842V biochemical enzymatic activity assay (EZReader 2 mobility shift); conditions: ATP at APPKM (25 μM), 90 minutes
Source text: (§1) PDGFRα and KIT enzymatic activity was monitored using the Perkin Elmer electrophoretic mobility shift technology platform, the EZReader 2.
(§2) Within the linear, steady-state phase of the kinase enzymatic reaction, the mixed pool of phosphorylated (product) and non-phosphorylated (substrate) peptides was passed through the microfluidic system of the PerkinElmer EZ Reader 2, under an applied electric potential difference. The presence of the phosphate group on the product peptide provided a difference in mass and charge between that of the substrate peptide, resulting in a separation of the substrate and product pools in the sample (Perrin et al., Expert Opin Drug Discovery 2010, Jan. 5(1):51-63).
(§3) As the product and substrate peptide mixture passes the lasers within the instrument, these pools are detected (λex=488 nm, λem=568 nm) and resolved as separate peaks. The ratio between these peaks reflects the activity of the compound at that concentration, in that well, under those conditions.
(§4) All test articles were dissolved in 100% DMSO at a stock concentration of 10 mM. A 100×, 10-point, 4-fold serial dilution of all test compounds was created in 100% DMSO, starting at a relevant concentration, usually 1 mM. A volume of 0.130 μL of each concentration was transferred to the relevant well of a 384-well assay plate (Greiner 781 201) using a TTPLabtech Mosquito nano-liter dispenser. Using the Multidrop, the remaining constituents of the reaction were then added to the 0.130 μL of compound as follows:
The reaction was stopped by the addition of 70 μl of Stop buffer (100 mM HEPES pH 7.5, 0.015% Brij 35, 35 mM EDTA and 0.2% of Coating Reagent 3, Caliper Lifesciences). The plate was read on a Caliper EZReader 2.

wt KIT kinase = molecular target: T1, wt KIT kinase (Homo sapiens, UniProt P10721); experiment: Wild-type KIT Kd determination (phage-tagged kinase competition binding, qPCR)
T1 construct: made in house; host or cells: E. coli derived from BL21, infected with T7 phage
Description: Kd Determinations. For most assays, including wt KIT kinase, kinase-tagged T7 phage strains were prepared in an E. coli host derived from the BL21 strain. E. coli were grown to log-phase and infected with T7 phage and incubated with shaking at 32° C. until lysis. […] The liganded beads were blocked with excess biotin and washed with blocking buffer (SeaBlock (Pierce), 1% BSA, 0.05% Tween 20, 1 mM DTT) to remove unbound ligand and to reduce non-specific binding. […] Test compounds were prepared as 111×stocks in 100% DMSO. Kds were determined using an 11-point 3-fold compound dilution series with three DMSO control points. […] The compounds were then diluted directly into the assays such that the final concentration of DMSO was 0.9%. All reactions were performed in polypropylene 384-well plate. Each was a final volume of 0.02 ml. […] The kinase concentration in the eluates was measured by qPCR.
Binding Constants (Kds). Binding constants (Kds) were calculated with a standard dose-response curve using the Hill equation: Response=Background+Signal−Background 1+(KdHill Slope/DoseHill Slope). The Hill Slope was set to −1. Curves were fitted using a non-linear least square fit with the Levenberg-Marquardt algorithm.

KIT D816V = KIT D816V (Homo sapiens, UniProt P10721, D816V); experiment: KIT D816V biochemical enzymatic activity assay (EZReader 2 mobility shift); conditions: ATP at APPKM (20 μM), 60 minutes
Source text: as §1, §2, §3, §4
The reaction was stopped by the addition of 70 μl of Stop buffer (100 mM HEPES pH 7.5, Brij 35, 35 mM EDTA and 0.2% of Coating Reagent 3, Caliper Lifesciences). The plate was read on a Caliper EZReader 2.

[1] = Brain penetration in rats, brain to plasma ratios after 24 h IV infusion; format: in vivo, Sprague-Dawley rats; conditions: for Kp uu at 24 h: Sprague-Dawley, brain / plasma, intravenous, 1 mg/kg/hr; for Kp uu at 24 h / Rat Kp: Table 3B; for Rat Kp: methods as for compound 4
Source text: To understand the brain penetration, brain to plasma ratios of the compounds were obtained in Sprague-Dawley (SD) rats. In vivo equilibrium distribution between blood and brain in preclinical species such as rats is a commonly used parameter to evaluate brain penetration. Kp,brain is the ratio of concentrations in brain and blood (Cbrain/Cplasma). The compound's passive diffusion characteristics, its affinity for membrane transporters at the blood-brain barrier (BBB), and the relative drug binding affinity differences between the plasma proteins and brain tissue influence the Kp,brain.
The animals received IV infusion of 1 mg/kg/hr of the compound over 24 hours via jugular vein cannulation. At 24 hours, blood was collected via tail vein bleeding or cardiac puncture (under anesthesia) and centrifuged to obtain plasma samples. Brain tissues were collected and homogenized with phosphate-buffered saline (PBS). The concentrations of the compounds were obtained in the plasma and brain homogenates by LC-MS/MS analysis.

[2] = molecular target: T2, KIT D816V (HMC1.2 cells, KIT V560G and D816V) (Homo sapiens, UniProt P10721, D816V/V560G); experiment: HMC1.2 autophosphorylation assay (phospho-Y719 KIT AlphaLISA); format: cell-based; conditions: 90 minutes, KIT autophosphorylation at tyrosine 719, read-out: KIT (P-KIT HMC1.2 (nM))
T2 construct: endogenous in cells; host or cells: HMC1.2 (mast cell leukemia cell line)
Description: 10,000 HMC1.2 cells were incubated in 22 μL culture media (phenol-red free IMDM, no serum) in each well of a 384-well plate and serum starved overnight in a tissue culture incubator (5% CO2, 37° C.). […] 10 μL of […] streptavidin donor beads (Perkin Elmer) were added to each well, blocked from light with solid black adhesive and shaken at 300 rpm at room temperature for 2 hours. Fluorescence signal was obtained on Envision (Perkin Elmer) by AlphaScreen 384 well HTS protocol.

[3] = Pharmacokinetics after single intravenous and oral administration in rats; format: in vivo, Sprague-Dawley rats; conditions: iv 1 mg/kg, Clu=Cl/fu,plasma
Description: Assessment of pharmacokinetics following single intravenous and oral administration in rats: 3 Sprague-Dawley rats were employed for each compound for each route of administration (iv or oral). For iv administration, 1 mg/kg (dose volume=5 mL/kg) of each compound was administered by intravenous route via […] injection; whereas for oral route, 2.5 mg/kg (dose volume=5 mL/kg) was administered via oral gavage. Blood samples were obtained via tail vein at predose, 0.083, 0.25, 0.5, 1, 2, 4 and 8 hr. In addition, blood samples were also obtained at 24 hr via cardiac puncture (under anesthesia with Isoflurane) for terminal bleeding. All the blood samples were analyzed for the drug concentrations via LC/MS-MS. Pharmacokinetic parameters such as Cmax, Tmax, AUClast, AUCinf, MRTlast, MRTinf, T1/2, Vss and CL were obtained by non-compartmental analysis (NCA).

[4] = rat, fu,brain from brain slice, read-out: Rat Kp, uu Brain slice

KIT D816V, sequence (P10721 26-976 D816V): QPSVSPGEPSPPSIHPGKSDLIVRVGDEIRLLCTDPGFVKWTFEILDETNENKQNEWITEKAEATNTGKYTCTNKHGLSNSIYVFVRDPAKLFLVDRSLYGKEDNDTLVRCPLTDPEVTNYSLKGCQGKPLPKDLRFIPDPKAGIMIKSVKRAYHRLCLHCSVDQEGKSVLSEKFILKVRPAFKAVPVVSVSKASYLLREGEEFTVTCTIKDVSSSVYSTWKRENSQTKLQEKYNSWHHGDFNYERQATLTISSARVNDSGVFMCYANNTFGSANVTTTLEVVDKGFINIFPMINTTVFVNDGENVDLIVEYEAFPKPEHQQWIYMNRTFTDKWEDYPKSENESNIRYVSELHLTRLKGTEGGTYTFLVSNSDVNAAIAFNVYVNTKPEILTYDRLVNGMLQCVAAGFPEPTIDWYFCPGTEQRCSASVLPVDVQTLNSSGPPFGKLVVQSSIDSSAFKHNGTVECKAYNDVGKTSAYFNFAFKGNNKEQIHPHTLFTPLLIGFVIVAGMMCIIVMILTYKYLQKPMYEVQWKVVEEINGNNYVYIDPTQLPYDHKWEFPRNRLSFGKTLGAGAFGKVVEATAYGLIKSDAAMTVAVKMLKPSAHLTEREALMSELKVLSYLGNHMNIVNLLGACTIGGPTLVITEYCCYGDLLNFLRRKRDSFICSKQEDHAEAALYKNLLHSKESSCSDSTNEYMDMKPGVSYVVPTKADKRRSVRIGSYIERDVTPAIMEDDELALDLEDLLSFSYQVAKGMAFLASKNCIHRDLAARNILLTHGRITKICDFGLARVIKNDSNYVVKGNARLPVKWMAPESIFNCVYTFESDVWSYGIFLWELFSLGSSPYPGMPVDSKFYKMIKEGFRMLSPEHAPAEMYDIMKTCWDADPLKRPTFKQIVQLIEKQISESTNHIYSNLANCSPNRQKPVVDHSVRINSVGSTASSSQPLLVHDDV
PDGFRα D842V, sequence (P16234 24-1089 D842V): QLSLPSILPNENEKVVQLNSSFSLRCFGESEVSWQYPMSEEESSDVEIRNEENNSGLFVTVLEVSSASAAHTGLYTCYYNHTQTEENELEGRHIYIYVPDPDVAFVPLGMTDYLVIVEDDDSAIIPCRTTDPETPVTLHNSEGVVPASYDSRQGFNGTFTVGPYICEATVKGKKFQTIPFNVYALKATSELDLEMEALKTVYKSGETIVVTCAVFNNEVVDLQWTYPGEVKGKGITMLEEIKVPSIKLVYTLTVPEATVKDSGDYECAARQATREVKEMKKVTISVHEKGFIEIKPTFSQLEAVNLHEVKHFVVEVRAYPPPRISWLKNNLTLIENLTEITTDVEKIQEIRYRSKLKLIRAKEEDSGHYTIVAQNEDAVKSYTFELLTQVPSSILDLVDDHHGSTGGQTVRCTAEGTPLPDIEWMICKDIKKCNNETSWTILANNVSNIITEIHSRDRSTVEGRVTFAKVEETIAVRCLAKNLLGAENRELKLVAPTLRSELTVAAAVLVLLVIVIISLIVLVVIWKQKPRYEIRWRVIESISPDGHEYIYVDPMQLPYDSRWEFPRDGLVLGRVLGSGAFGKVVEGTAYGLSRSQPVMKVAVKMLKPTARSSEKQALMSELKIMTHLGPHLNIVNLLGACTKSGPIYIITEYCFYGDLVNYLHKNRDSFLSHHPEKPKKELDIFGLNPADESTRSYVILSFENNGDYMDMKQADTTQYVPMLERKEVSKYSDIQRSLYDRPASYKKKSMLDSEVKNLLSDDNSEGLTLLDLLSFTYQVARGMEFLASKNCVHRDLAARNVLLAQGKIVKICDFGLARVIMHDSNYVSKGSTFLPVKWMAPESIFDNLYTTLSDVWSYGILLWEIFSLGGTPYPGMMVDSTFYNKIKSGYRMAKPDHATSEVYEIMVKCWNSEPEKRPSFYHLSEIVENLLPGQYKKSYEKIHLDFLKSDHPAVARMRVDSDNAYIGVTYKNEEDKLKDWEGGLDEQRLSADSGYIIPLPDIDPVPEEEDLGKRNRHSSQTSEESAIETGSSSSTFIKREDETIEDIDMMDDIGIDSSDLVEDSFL
T1 sequence (P10721 26-976): as the sequence (P10721 26-976 D816V) above, with V791D counted along it
T2 sequence (P10721 26-976 V560G/D816V): as the sequence (P10721 26-976 D816V) above, with V535G counted along it

C[C@@H](CO)n1cc(-c2cc3c(N4CCN(c5ncc([C@@](C)(N)c6ccc(F)cc6)cn5)CC4)ncnn3c2)cn1 [Compound 6, (S)-2-(4-(4-(4-(5-((S)-1-amino-1-(4-fluorophenyl)ethyl)pyrimidin-2-yl)piperazin-1-yl)pyrrolo[2,1-f][1,2,4]triazin-6-yl)-1H-pyrazol-1-yl)propan-1-ol]
IC50 (PDGFRα D842V): ≤ 0.3 nM

C[C@](N)(c1ccc(F)cc1)c1cnc(N2CCN(c3ncnn4cc(-c5cnn([C@H]6CC[C@@H]6O)c5)cc34)CC2)nc1 (single isomer, unassigned) [Compound 10]
Kd (wt KIT kinase): < 10 nM
IC50 (KIT D816V): 0.31 to 1 nM
IC50 (PDGFRα D842V): ≤ 0.3 nM
Kp uu at 24 h [1, 4]: 0.07
Rat Kp [1]: 0.18
IC50 [2]: < 4.5 nM

C[C@H](O)Cn1cc(-c2cc3c(N4CCN(c5ncc([C@@](C)(N)c6ccc(F)cc6)cn5)CC4)ncnn3c2)cn1 [Compound 7]
IC50 (PDGFRα D842V): ≤ 0.3 nM

C[C@](N)(c1ccc(F)cc1)c1cnc(N2CCN(c3ncnn4cc(-c5cnn(C6(CO)CC6)c5)cc34)CC2)nc1 [Compound 9, (S)-(1-(4-(4-(4-(5-(1-Amino-1-(4-fluorophenyl)ethyl)pyrimidin-2-yl)piperazin-1-yl)pyrrolo[2,1-f][1,2,4]triazin-6-yl)-1H-pyrazol-1-yl)cyclopropyl)methanol]
IC50 (PDGFRα D842V): ≤ 0.3 nM

C[C@](N)(c1ccc(F)cc1)c1cnc(N2CCN(c3ncnn4cc(-c5cnn([C@@H]6CC[C@H]6O)c5)cc34)CC2)nc1 (single isomer, unassigned) [Compound 11]
Kd (wt KIT kinase): < 10 nM
IC50 (KIT D816V): ≤ 0.3 nM
IC50 (PDGFRα D842V): ≤ 0.3 nM
Kp uu at 24 h ([1]; rat, fu,brain from brain homogenate, read-out: Rat Kp, uu Homogenate): 0.06
Kp uu at 24 h [1, 4]: 0.03
Rat Kp [1]: 0.13
IC50 [2]: < 4.5 nM

C[C@@H](O)Cn1cc(-c2cc3c(N4CCN(c5ncc([C@@](C)(N)c6ccc(F)cc6)cn5)CC4)ncnn3c2)cn1 [Compound 3]
IC50 (PDGFRα D842V): ≤ 0.3 nM

CCn1cc(-c2cc3c(N4CCN(c5ncc([C@@](C)(N)c6ccc(F)cc6)cn5)CC4)ncnn3c2)cn1 [Comparator A, reference compound]
IC50 (KIT D816V): ≤ 0.3 nM
IC50 (PDGFRα D842V): ≤ 0.3 nM
Unbound concentration, Brain ([1]; rat, total mean brain concentration x fu,brain (homogenate)): 1.7
Unbound concentration, Plasma ([1]; rat, total mean plasma concentration x fu,p): 2.02

C[C@](N)(c1ccc(F)cc1)c1cnc(N2CCN(c3ncnn4cc(-c5cnn(CCO)c5)cc34)CC2)nc1 [Compound 4, (S)-2-(4-(4-(4-(5-(1-Amino-1-(4-fluorophenyl)ethyl)pyrimidin-2-yl)piperazin-1-yl)pyrrolo[2,1-f][1,2,4]triazin-6-yl)-1H-pyrazol-1-yl)ethanol]
Rat IV PK (Clu) (mL/min/kg), unbound clearance [3]: (582) mL/min/kg
IC50 (PDGFRα D842V): ≤ 0.3 nM

CC(C)(CO)n1cc(-c2cc3c(N4CCN(c5ncc([C@@](C)(N)c6ccc(F)cc6)cn5)CC4)ncnn3c2)cn1 [Compound 2, (S)-2-(4-(4-(4-(5-(1-amino-1-(4-fluorophenyl)ethyl)pyrimidin-2-yl)piperazin-1-yl)pyrrolo[2,1-f][1,2,4]triazin-6-yl)-1H-pyrazol-1-yl)-2-methylpropan-1-ol]
IC50 (PDGFRα D842V): ≤ 0.3 nM

C[C@](N)(c1ccc(F)cc1)c1cnc(N2CCN(c3ncnn4cc(-c5cnn(CC6(O)CC6)c5)cc34)CC2)nc1 [Compound 8, (S)-1-((4-(4-(4-(5-(1-Amino-1-(4-fluorophenyl)ethyl)pyrimidin-2-yl)piperazin-1-yl)pyrrolo[2,1-f][1,2,4]triazin-6-yl)-1H-pyrazol-1-yl)methyl)cyclopropan-1-ol]
IC50 (PDGFRα D842V): ≤ 0.3 nM

C[C@H](CO)n1cc(-c2cc3c(N4CCN(c5ncc([C@@](C)(N)c6ccc(F)cc6)cn5)CC4)ncnn3c2)cn1 [Compound 5, (R)-2-(4-(4-(4-(5-((S)-1-Amino-1-(4-fluorophenyl)ethyl)pyrimidin-2-yl)piperazin-1-yl)pyrrolo[2,1-f][1,2,4]triazin-6-yl)-1H-pyrazol-1-yl)propan-1-ol]
IC50 (PDGFRα D842V): ≤ 0.3 nM

CC(C)(O)Cn1cc(-c2cc3c(N4CCN(c5ncc([C@@](C)(N)c6ccc(F)cc6)cn5)CC4)ncnn3c2)cn1 [Compound 1, (S)-1-(4-(4-(4-(5-(1-Amino-1-(4-fluorophenyl)ethyl)pyrimidin-2-yl)piperazin-1-yl)pyrrolo[2,1-f][1,2,4]triazin-6-yl)-1H-pyrazol-1-yl)-2-methylpropan-2-ol]
IC50 (PDGFRα D842V): ≤ 0.3 nM
